We go through three compounds from patent publication US20240165097A1, “PHARMACEUTICAL COMPOSITION FOR THE TREATMENT OF ALZHEIMER'S DISEASE OR DEMENTIA” (Heptares Therapeutics Limited, priority 2021, published 2024).

Each structure is given as a SMILES string.

The target in data set [1] is T1, human muscarinic M4 receptor (Homo sapiens, UniProt P08173).
T1 construct: expressed in transfected cells
T1 sequence (P08173 1-479): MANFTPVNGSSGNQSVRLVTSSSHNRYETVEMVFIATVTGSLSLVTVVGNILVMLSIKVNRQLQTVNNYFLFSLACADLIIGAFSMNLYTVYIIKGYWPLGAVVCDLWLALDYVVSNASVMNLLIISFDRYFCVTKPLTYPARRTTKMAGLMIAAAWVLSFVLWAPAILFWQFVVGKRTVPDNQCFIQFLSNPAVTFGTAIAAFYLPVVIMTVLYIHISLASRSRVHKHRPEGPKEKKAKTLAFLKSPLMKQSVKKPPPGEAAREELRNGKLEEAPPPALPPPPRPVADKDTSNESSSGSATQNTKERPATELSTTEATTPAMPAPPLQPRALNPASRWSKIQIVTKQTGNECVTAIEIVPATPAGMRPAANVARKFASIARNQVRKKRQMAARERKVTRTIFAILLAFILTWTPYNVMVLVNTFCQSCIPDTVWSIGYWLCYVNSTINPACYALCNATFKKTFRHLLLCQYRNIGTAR
The experiment in a line: Alphascreen Surefire phospho-ERK1/2 assay, M4. The data set is classed as cell-based. As to conditions: CHO cells, agonist 5 min; read-out: pEC50 M4 (converted). On the procedure:
(§1) ERK1/2 phosphorylation is a downstream consequence of both Gq/11 and Gi/o protein coupled receptor activation, making it highly suitable for the assessment of M1, M3 (Gq/11 coupled) and M2, M4 receptors (Gi/o coupled), rather than using different assay formats for different receptor subtypes. CHO cells stably expressing the human muscarinic M1, M2, M3 or M4 receptor were plated (25K/well) onto 96-well tissue culture plates in MEM-alpha+10% dialysed FBS. Once adhered, cells were serum-starved overnight. Agonist stimulation was performed by the addition of 5 μL agonist to the cells for 5 min (37° C.). Media was removed and 50 μL of lysis buffer added.

The target in data set [2] is T2, human muscarinic M1 receptor (Homo sapiens, UniProt P11229).
T2 construct: expressed in transfected cells
T2 sequence (P11229 1-460): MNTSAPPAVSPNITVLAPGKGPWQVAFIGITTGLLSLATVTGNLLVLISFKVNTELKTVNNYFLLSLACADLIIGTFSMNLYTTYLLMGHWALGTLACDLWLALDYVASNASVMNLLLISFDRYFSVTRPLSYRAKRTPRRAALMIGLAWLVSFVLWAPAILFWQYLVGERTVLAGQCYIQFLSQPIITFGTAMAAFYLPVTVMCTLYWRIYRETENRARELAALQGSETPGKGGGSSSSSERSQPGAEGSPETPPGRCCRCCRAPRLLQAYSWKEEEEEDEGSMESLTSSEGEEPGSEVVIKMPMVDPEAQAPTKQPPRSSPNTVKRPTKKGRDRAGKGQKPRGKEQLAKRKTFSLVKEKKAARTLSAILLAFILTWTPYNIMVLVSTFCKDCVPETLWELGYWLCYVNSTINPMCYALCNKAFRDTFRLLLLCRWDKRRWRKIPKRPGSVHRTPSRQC
The experiment in a line: Alphascreen Surefire phospho-ERK1/2 assay, M1. It counts as cell-based. To be noted: for EC50: CHO cells, agonist 5 min, read-out: pEC50 M1 (converted). On the procedure: as §1

Data set [3] has as its target T3, human muscarinic M3 receptor (Homo sapiens, UniProt P20309).
T3 construct: expressed in transfected cells
The experiment in a line: Alphascreen Surefire phospho-ERK1/2 assay, M3. The data set is classed as cell-based. To be noted: CHO cells, agonist 5 min; read-out: pEC50 M3 (converted). On the procedure:
as §1
(In general: Bead proximity is the source of the signal in Alpha formats.)

The target of data set [4] is T4, human muscarinic M2 receptor (Homo sapiens, UniProt P08172).
T4 construct: expressed in transfected cells
T4 sequence (P08172 1-466): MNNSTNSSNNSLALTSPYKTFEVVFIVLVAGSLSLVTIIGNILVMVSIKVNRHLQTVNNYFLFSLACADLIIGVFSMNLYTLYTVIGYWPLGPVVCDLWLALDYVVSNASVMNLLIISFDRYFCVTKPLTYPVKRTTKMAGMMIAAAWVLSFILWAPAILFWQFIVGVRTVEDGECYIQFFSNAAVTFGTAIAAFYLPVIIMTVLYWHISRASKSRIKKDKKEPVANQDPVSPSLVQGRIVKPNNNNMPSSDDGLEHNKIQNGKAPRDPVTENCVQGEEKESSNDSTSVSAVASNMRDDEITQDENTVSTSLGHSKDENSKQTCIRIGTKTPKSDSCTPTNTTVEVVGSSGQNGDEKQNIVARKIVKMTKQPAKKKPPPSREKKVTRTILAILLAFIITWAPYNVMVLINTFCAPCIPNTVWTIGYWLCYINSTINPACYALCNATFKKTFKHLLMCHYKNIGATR
The experiment in a line: Alphascreen Surefire phospho-ERK1/2 assay, M2. The data set is classed as cell-based. To be noted: CHO cells, agonist 5 min. The procedure: as §1

The test system of data set [5] is scopolamine-induced amnesia. The experiment in a line: Passive avoidance task. It counts as in vivo. As to conditions: 3, 10, 30 mg/kg po. The procedure: Studies were carried out as described previously by Foley et al., (2004) Neuropsychopharmacology. In the passive avoidance task scopolamine administration (1 mg/kg, i.p.) at 6 hours following training rendered animals amnesic of the paradigm. A dose range of 3, 10, and 30 mg/kg (po) free base, administered 90 minutes prior to the training period via oral gavage, was examined.

Data set [6] deals with patients with mild-to-moderate AD. To be noted: human, in vivo; cited from earlier work.

T3 sequence (P20309 whole entry): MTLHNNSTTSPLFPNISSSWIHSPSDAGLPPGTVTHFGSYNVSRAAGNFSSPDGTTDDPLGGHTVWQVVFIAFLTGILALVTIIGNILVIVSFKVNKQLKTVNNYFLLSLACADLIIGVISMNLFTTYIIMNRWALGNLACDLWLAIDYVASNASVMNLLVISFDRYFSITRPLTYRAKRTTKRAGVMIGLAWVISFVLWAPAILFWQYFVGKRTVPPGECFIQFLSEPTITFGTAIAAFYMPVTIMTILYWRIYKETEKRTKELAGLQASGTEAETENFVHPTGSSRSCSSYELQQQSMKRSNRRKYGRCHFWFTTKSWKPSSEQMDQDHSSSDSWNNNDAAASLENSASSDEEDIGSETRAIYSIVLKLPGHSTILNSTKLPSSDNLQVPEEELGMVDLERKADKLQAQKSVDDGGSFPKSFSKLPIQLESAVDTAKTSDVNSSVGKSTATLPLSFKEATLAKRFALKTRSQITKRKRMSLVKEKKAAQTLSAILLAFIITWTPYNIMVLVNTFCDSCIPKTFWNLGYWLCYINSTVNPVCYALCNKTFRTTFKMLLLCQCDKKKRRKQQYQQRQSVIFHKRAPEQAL

With `CCOC(=O)N1C2CCC1CC(N1CCC3(CC1)CNC(=O)C3)C2` (single isomer, unassigned) [Example 2-2 Isomer 1, ethyl 3-(3-oxo-2,8-diazaspiro[4.5]dec-8-yl)-8-azabicyclo[3.2.1]octane-8-carboxylate], the EC50 in data set [1] is 200 nM; in data set [2], 79.4 nM; in data set [3], greater than 20000 nM; in data set [4] (read-out: pEC50 M2 (converted)), greater than 20000 nM. Also, the Emax came out at 99% in data set [2] (CHO, read-out: % Emax cf. ACh, M1, CHO cells, agonist 5 min) and 0% in data set [4] (read-out: % Emax cf. ACh, M2). The “effect on scopolamine-induced amnesia” value in data set [5] was “reverse scopolamine-induced amnesia of the paradigm in a dose-dependent manner”.

`CCOC(=O)N1C2CCC1CC(N1CCC3(CC1)CNC(=O)C3)C2` (single isomer, unassigned) [Example 2-2 Isomer 2, ethyl 3-(3-oxo-2,8-diazaspiro[4.5]dec-8-yl)-8-azabicyclo[3.2.1]octane-8-carboxylate]: the EC50 in data set [1] was 25.1 nM; in data set [2] it was 12.6 nM.

For the compound `Cc1ccc(Cc2cc3c(=O)n([C@H]4CCCC[C@@H]4O)cnc3c3ccccc23)cn1` [MK-7622], in data set [6], the “incidence of cholinergic adverse events” value is 21%.

As usually defined, the Emax is the greatest response seen or fitted, relative to the assay's reference.
